The test system of this assay is gastric motility. The experiment in a line: Activity on gastric motility in rat (balloon in stomach, conscious). The format is in vivo, male Wistar rats. Particulars: for Contraction frequency (% of value prior to administration) / Motility index (% of value prior to administration): 1 mg/kg i.p. The procedure: Experiment 2. Activity on Gastric Motility in Rat Male Wistar rats weighing 250 to 350 g were fasted for 18 hours and then provided for experiment. The abdominal cavity was opened under ether anesthesia and a rubber balloon was inserted into the stomach via the forestomach. A cannula for administering a drug was put in the peritoneal cavity. After recovery from the anesthesia, the balloon was connected to low pressure transducers to record gastric motility in the conscious state. The compound of the present invention was suspended in physiological saline and the suspension was intraperitoneally administered. Contraction frequency and motility index are shown in terms of a proportion (%) of a mean value calculated for 15 minutes to a value prior to administration (0 minute). The value for 0 minute was made a mean value for 30 minutes prior to the administration.

[1] abbreviates: 10 min after administration, N = 4.
[2] abbreviates: 30 min after administration, N = 4.
Setting [3] is: 40 min after administration, N = 4.
Setting [4] is: 50 min after administration, N = 4.
Where [5] appears, read: 60 min after administration, N = 4.

`CC(C)n1c(=O)c(C(=O)N[C@H]2C[C@H]3CC[C@@H](C2)N3C)cc2ccccc21` [Compound 1, endo-N-(8-methyl-8-azabicyclo[3.2.1]oct-3-yl)-1-isopropyl-2(1H)-quinolone-3-carboxamide]: the “Contraction frequency (% of value prior to administration)” value runs as follows: under setting [1], 182.3%; (20 min after administration, N = 4, *: P < 0.05) 243.5%; under setting [2], 187.0%; under setting [3], 134.7%; under setting [4], 134.9%; under setting [5], 141.6%. For the same molecule, the “Motility index (% of value prior to administration)” value under setting [1] was found to be 169.3%; the “Motility index (% of value prior to administration)” value (20 min after administration, N = 4) is given as 188.1%; the “Motility index (% of value prior to administration)” value under setting [2] was determined as 144.2%; the “Motility index (% of value prior to administration)” value under setting [3] is listed as 83.3%; the “Motility index (% of value prior to administration)” value under setting [4] was determined as 88.8%; the “Motility index (% of value prior to administration)” value under setting [5] worked out at 108.8%. For the same molecule, the “effect on gastric motility” value (1 mg/kg, i.p.) was “accelerated the gastric motility”.
